The source of these data is PubChem BioAssay (NCI).

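Method: 48-hour compound exposure of cells in 96-well plates, five concentrations, linear interpolation of endpoints. GI50: concentration for 50% inhibition of growth. TGI: total growth inhibition.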 Some results are limits rather than exact numbers.

Among the test systems are CAKI-1 renal; COLO 205 colon; EKVX NSCLC; MDA-MB-231 breast; MDA-MB-435; MOLT-4 leukemia; OVCAR-4 ovarian; RPMI-8226 leukemia; SNB-19 CNS; T-47D breast.
Common to all, as to test: NCI tumour cell line growth inhibition, 48 h

`O=[N+]([O-])c1ccc(-c2nc(N(CCO)CCO)c3ccccc3n2)o1`: the GI50 in the experiment on CAKI-1 renal is 0.282 µM; in the experiment on COLO 205 colon, 0.118 µM; in the experiment on EKVX NSCLC, 0.464 µM; in the experiment on MDA-MB-231 breast, 1.08 µM; with MDA-MB-435, 0.309 µM; in the experiment on MOLT-4 leukemia it was 0.508 µM. For the same compound, the GI50 is 0.208 µM with OVCAR-4 ovarian, 0.567 µM with RPMI-8226 leukemia, 0.229 µM in the experiment on SNB-19 CNS and 0.319 µM with T-47D breast. Also, the TGI is 3.33 µM with CAKI-1 renal; 0.264 µM with COLO 205 colon; 4.31 µM in the experiment with EKVX NSCLC; 4.25 µM in the experiment on MDA-MB-231 breast; 1.27 µM with MDA-MB-435; above 38.9 µM in the experiment with MOLT-4 leukemia. Further, the TGI in the experiment with OVCAR-4 ovarian is 1.8 µM; with RPMI-8226 leukemia, above 21.3 µM; in the experiment on SNB-19 CNS, 1.41 µM; in the experiment with T-47D breast, 5.02 µM.
Take `Cc1ccccc1C(=O)C#Cc1cn(C2CC(O)C(CO)O2)c(=O)[nH]c1=O` (configuration not stated): the TGI in the experiment on CAKI-1 renal is above 100 µM; in the experiment with COLO 205 colon it was above 100 µM; with EKVX NSCLC, above 100 µM; with MDA-MB-231 breast, above 100 µM; with MDA-MB-435, above 100 µM; with MOLT-4 leukemia, 92.5 µM. The TGI in the experiment on OVCAR-4 ovarian, in the experiment with RPMI-8226 leukemia, in the experiment on SNB-19 CNS and in the experiment with T-47D breast was above 100 µM in each case.
For `O=C1C(=Cc2ccco2)C(=O)C2CCCCC12` (configuration not stated), the TGI with CAKI-1 renal, in the experiment with COLO 205 colon, in the experiment on EKVX NSCLC, in the experiment on MDA-MB-231 breast, in the experiment with MDA-MB-435 and in the experiment with MOLT-4 leukemia was above 100 µM in each case. Further, the TGI with OVCAR-4 ovarian, with RPMI-8226 leukemia, with SNB-19 CNS and with T-47D breast was above 100 µM each time.
With `CC1(C)NCCC[C@]2(C)[C@H]3C=CC4=C5C[C@](C)(CO)CC[C@]5(C)CC[C@@]4(C)[C@]3(C)CC[C@@H]12`, the GI50 in the experiment on CAKI-1 renal is 3.7 µM; in the experiment with COLO 205 colon, 3.63 µM; in the experiment with EKVX NSCLC, 2.77 µM; in the experiment with MDA-MB-231 breast it was 14.5 µM; in the experiment with MDA-MB-435, 3.76 µM; in the experiment with MOLT-4 leukemia it was 2.46 µM. The GI50 was 5.63 µM in the experiment with OVCAR-4 ovarian, 3.91 µM with RPMI-8226 leukemia, 11.6 µM in the experiment with SNB-19 CNS and 5.38 µM in the experiment with T-47D breast. Moreover, the TGI in the experiment on CAKI-1 renal was 13.8 µM; with COLO 205 colon it was 13.9 µM; in the experiment with EKVX NSCLC it was 8.27 µM; with MDA-MB-231 breast, 29.3 µM; in the experiment with MDA-MB-435 it was 14 µM; in the experiment with MOLT-4 leukemia it was 6.8 µM. The TGI is 20.8 µM in the experiment on OVCAR-4 ovarian, 14.9 µM with RPMI-8226 leukemia, 25.3 µM with SNB-19 CNS and 20.9 µM in the experiment on T-47D breast.
Consider `Cc1cccc(C)c1NC(=O)/C(Cl)=C(/Cl)C(=O)O`, for which the TGI with CAKI-1 renal is 15.1 µM; with COLO 205 colon it was 11.4 µM; in the experiment on EKVX NSCLC, 35.7 µM; in the experiment on MDA-MB-231 breast, 41.7 µM; in the experiment on MDA-MB-435 it was 51 µM; in the experiment with MOLT-4 leukemia it was 27.5 µM. The TGI in the experiment on OVCAR-4 ovarian is 33.5 µM; with RPMI-8226 leukemia it was 37.1 µM; in the experiment with SNB-19 CNS, above 70.1 µM; with T-47D breast it was 66.2 µM.
Regarding `COc1cc(Cl)cc(-c2nn(C(=O)NCCN3CCN(C)CC3)cc2-c2ccncc2)c1`, the GI50 with CAKI-1 renal was 4.35 µM; in the experiment with COLO 205 colon it was 9.86 µM; with EKVX NSCLC it was 0.971 µM; in the experiment on MDA-MB-231 breast, 9.7 µM; in the experiment with MDA-MB-435, 10.4 µM; in the experiment with MOLT-4 leukemia, 29.4 µM. For the same compound, the GI50 in the experiment on OVCAR-4 ovarian was 4.35 µM; with RPMI-8226 leukemia, 21.9 µM; in the experiment with SNB-19 CNS, 7.93 µM; in the experiment on T-47D breast, 20.8 µM. Moreover, the TGI in the experiment on CAKI-1 renal is 25.3 µM; in the experiment on COLO 205 colon, 60.9 µM; in the experiment with EKVX NSCLC it was 37.1 µM; in the experiment on MDA-MB-231 breast, 43.5 µM; in the experiment on MDA-MB-435, 35 µM; in the experiment on MOLT-4 leukemia, above 100 µM. The TGI in the experiment on OVCAR-4 ovarian, with RPMI-8226 leukemia, with SNB-19 CNS and with T-47D breast was above 100 µM throughout.
Consider `CC(=O)C1CC2(c3ccc(C)cc3)C(c3ccc(C)cc3)=C(c3ccc(C)cc3)C1(c1ccc(C)cc1)S2=O` (configuration not stated), for which the GI50 in the experiment on CAKI-1 renal, in the experiment with COLO 205 colon, in the experiment with EKVX NSCLC, in the experiment on MDA-MB-231 breast, in the experiment on MDA-MB-435 and in the experiment with MOLT-4 leukemia was above 100 µM each time. Also, the GI50 was 79.9 µM with OVCAR-4 ovarian, 31.1 µM with RPMI-8226 leukemia, above 100 µM in the experiment on SNB-19 CNS and 68 µM in the experiment on T-47D breast. The TGI in the experiment with CAKI-1 renal, with COLO 205 colon, with EKVX NSCLC, in the experiment with MDA-MB-231 breast, in the experiment on MDA-MB-435 and in the experiment on MOLT-4 leukemia was above 100 µM each time. The TGI in the experiment with OVCAR-4 ovarian, with RPMI-8226 leukemia, in the experiment on SNB-19 CNS and in the experiment with T-47D breast was above 100 µM each time.
As for `[N-]=[N+]=C(C(=O)OCC#CCOC(=O)C(=[N+]=[N-])S(=O)(=O)c1ccccc1)S(=O)(=O)c1ccccc1`, the TGI with CAKI-1 renal, in the experiment on COLO 205 colon, in the experiment with EKVX NSCLC, with MDA-MB-231 breast, in the experiment on MDA-MB-435 and with MOLT-4 leukemia was above 10 µM throughout. Also, the TGI in the experiment on OVCAR-4 ovarian, with RPMI-8226 leukemia, in the experiment on SNB-19 CNS and in the experiment on T-47D breast was above 10 µM throughout.
With `Cc1ccccc1CN1CC2=C(CCN(Cc3ccccc3)C2=O)N2CCN=C12`, the TGI is above 100 µM in the experiment on CAKI-1 renal; above 100 µM in the experiment with COLO 205 colon; above 100 µM in the experiment on EKVX NSCLC; above 80 µM in the experiment on MDA-MB-231 breast; above 100 µM in the experiment on MDA-MB-435; above 100 µM in the experiment with MOLT-4 leukemia. Also, the TGI with OVCAR-4 ovarian was above 100 µM; with RPMI-8226 leukemia it was above 100 µM; in the experiment on SNB-19 CNS, above 100 µM; with T-47D breast, above 84.2 µM.
On to `COc1ccc2c(c1)nc(N)c1c3cc(OC)c(OC)cc3cn21`, for which the TGI in the experiment with CAKI-1 renal was determined as 19.8 µM; in the experiment on COLO 205 colon it was 0.521 µM; in the experiment on EKVX NSCLC, 22 µM; in the experiment on MDA-MB-231 breast it was 17.4 µM; with MOLT-4 leukemia it was 12.6 µM; in the experiment on OVCAR-4 ovarian it was 17.8 µM. Also, the TGI was found to be 12.8 µM in the experiment with RPMI-8226 leukemia, 19.1 µM with SNB-19 CNS and 25.5 µM in the experiment with T-47D breast. Also, the GI50 in the experiment on EKVX NSCLC was 1.81 µM; with MDA-MB-231 breast it was 0.345 µM; in the experiment with MDA-MB-435 it was below 0.01 µM; with MOLT-4 leukemia it was 0.281 µM; in the experiment on OVCAR-4 ovarian, 0.238 µM; with RPMI-8226 leukemia, 0.0968 µM. Further, the GI50 is 0.0967 µM in the experiment with SNB-19 CNS and 0.721 µM in the experiment on T-47D breast.
